According to article PMC11257039, “VCP activator reverses nuclear proteostasis defects and enhances TDP-43 aggregate clearance in multisystem proteinopathy models” (The Journal of Clinical Investigation, 2024):
pEC50: −log10 of the molar value. Where “and” joins values, the source holds several entries; their conditions need not be identical. Equal values may be shown once.

Assays:
[1] = tested on: WT HeLa cells expressing TDP-4FL; experiment: Immunofluorescence of TDP-4FL inclusion morphology, WT HeLa; assay type: cell-based; conditions: for TDP-4FL inclusion size and morphology upon proteasome inhibition: 4 μM MG132, 1 μM ixazomib or 1 μM epoxomicin, 3 or 6 hours
Experimental: HeLa Cells were plated onto glass coverslips and transfected with TDP-4FL using Fugene HD for 24 hours. Cells were fixed with 4% paraformaldehyde (Electron Microscopy Sciences), permeabilized with 0.1% Triton-X (Thermo Fisher Scientific), and blocked with 2% FBS DPBS. Primary antibodies were diluted in 2% FBS DPBS. Cells were stained with 300 nM DAPI, and coverslips were mounted onto glass slides using ProLong Glass Antifade Mountant (Thermo Fisher Scientific). Confocal images were obtained using a Leica TCS SPE laser scanning confocal microscope.
(A) High power magnification immunofluorescence confocal images of HeLa cells expressing TDP-4FL stained for myc-TDP (green) Scale bar, 5 µm. […]
(C) Representative confocal microscopy immunofluorescence confocal images of HeLa cells […]
yellow represent cells that were categorized as anisosome morphology. Nuclei outline in white represent cells that were categorized as aggregate morphology. Cells with approximately more than 50% anisosome inclusions were categorized as anisosome morphology whereas cells with approximately more than 50% aggregate-like inclusions were categorized as aggregate morphology. Binucleate cells were excluded from the total counts. Scale bar, 10 µm.
(§1) (1 picture or pasted object on this page, not shown here)

recombinant WT VCP [2] = target: T1, recombinant WT VCP (Mus musculus, UniProt Q01853); experiment: Kinase-Glo ATPase assay, recombinant WT VCP; assay type: biochemical; conditions: for ATP consumed: WT VCP no UN
T1 construct: in the full-length recombinant VCP; His (N); made in house; host or cells: Escherichia coli BL21-CodonPlus (DE3)-RIL
T1 sequence (Q01853 whole entry): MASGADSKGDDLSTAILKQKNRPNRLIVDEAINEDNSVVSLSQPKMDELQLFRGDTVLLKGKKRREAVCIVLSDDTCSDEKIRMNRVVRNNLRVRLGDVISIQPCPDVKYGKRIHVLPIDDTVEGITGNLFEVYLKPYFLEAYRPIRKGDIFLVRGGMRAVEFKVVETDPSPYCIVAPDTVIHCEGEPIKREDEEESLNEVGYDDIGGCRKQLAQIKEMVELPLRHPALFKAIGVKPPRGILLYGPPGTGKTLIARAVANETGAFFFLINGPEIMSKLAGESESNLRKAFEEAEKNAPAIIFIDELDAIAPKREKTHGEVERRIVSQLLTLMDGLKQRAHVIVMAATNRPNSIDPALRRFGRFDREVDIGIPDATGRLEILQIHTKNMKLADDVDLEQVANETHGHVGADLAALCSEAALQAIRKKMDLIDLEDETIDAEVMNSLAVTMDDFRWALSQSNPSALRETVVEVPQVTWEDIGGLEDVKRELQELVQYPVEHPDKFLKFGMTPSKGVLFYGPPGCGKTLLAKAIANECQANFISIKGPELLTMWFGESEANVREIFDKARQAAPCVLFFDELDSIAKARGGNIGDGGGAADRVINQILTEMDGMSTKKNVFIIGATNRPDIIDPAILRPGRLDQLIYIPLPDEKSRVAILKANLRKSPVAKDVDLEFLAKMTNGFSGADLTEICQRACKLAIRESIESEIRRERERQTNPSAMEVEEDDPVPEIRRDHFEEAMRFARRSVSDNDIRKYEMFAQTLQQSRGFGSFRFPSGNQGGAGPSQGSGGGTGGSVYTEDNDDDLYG
Experimental: (§2) Experiments with varied activator concentration and screening were measured using the Kinase-Glo Luminescent Kinase Assay (Promega). Reactions were incubated at 25°C for 1 hour then reduced to 4°C in a thermocycler consisting of 50 nM of recombinant VCP with or without 50 nM UFD1/NPLOC4 in 50 uL ATPase buffer (25 mM HEPES, pH 7.5, 100 mM NaCl, 10 mM MgCl2) at 2% DMSO with 62.5 μM ATP and a range of activator concentrations (Gibco, Sigma-Aldrich). Equal volumes of reaction and Kinase-Glo reagent were incubated for 20 minutes at room temperature in a 96 well white flat bottom plate (Corning). Luminescence was measured in a microplate reader (Spark 20M, Tecan).
(§3) Experiments with varied compound concentration were fit to a 3-parameter dose curve with asymmetric profile likelihood 95% confidence intervals in GraphPad Prism 9 (GraphPad). Experiments with varied ATP concentration were fit to a Michaelis-Menten model with asymmetric profile likelihood 95% confidence intervals. Significance was determined for experiments with fixed compound or fixed ATP concentration using a linear mixed-effects model.

WT VCP + Ufd1/Nploc4 = target: T2, WT VCP + Ufd1/Nploc4 (Mus musculus, UniProt Q01853); experiment: Kinase-Glo ATPase assay, WT VCP with UFD1/NPLOC4 (UN); assay type: biochemical; conditions: for ATP consumed: WT VCP with UN
T2 construct: in the full-length recombinant VCP; His (N); made in house; host or cells: E. coli (VCP: BL21-CodonPlus (DE3)-RIL; UFD1 and NPLOC4: E. coli (DE3), purified by the MD Anderson core)
T2 sequence (Q01853 whole entry): as above
T2 sequence (Q92890 whole entry partner): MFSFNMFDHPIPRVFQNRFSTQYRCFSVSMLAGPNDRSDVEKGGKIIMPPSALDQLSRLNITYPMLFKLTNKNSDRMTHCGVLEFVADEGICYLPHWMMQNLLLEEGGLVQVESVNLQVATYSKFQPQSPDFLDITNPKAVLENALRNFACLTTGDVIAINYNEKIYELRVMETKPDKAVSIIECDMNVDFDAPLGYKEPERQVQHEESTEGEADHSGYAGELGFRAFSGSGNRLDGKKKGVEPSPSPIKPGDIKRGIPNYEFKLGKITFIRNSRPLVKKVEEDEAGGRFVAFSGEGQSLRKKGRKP
T2 sequence (Q8TAT6 whole entry partner): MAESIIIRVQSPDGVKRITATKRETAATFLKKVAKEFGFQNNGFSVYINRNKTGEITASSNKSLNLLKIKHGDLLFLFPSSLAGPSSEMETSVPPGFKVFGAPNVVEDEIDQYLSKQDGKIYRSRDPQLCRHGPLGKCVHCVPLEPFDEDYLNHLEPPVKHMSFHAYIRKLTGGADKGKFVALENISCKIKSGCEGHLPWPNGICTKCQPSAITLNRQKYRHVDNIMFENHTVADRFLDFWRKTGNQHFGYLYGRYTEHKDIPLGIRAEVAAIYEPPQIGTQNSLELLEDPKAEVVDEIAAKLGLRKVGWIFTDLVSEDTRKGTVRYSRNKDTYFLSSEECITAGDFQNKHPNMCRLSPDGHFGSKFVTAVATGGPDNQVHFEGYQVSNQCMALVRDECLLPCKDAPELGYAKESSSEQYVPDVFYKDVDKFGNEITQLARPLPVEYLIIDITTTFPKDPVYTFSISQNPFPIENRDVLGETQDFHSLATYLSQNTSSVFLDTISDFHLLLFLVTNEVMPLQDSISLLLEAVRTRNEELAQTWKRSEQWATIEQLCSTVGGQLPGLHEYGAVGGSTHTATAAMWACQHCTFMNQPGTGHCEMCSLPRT
Experimental: as §2, §3

R159H VCP = target: T3, R159H VCP (Mus musculus, UniProt Q01853, R159H); experiment: MESG-PNP ATPase assay, recombinant R159H VCP; assay type: biochemical; conditions: VCP Mutation R159H; replicate values
T3 construct: in the full-length recombinant VCP; His (N); made in house; host or cells: Escherichia coli BL21-CodonPlus (DE3)-RIL
T3 sequence (Q01853 whole entry R159H): as the sequence (Q01853 whole entry) above, with R159H counted along it
Experimental: (§4) All other experiments were performed using the EnzCheck phosphatase assay kit (Molecular Probes). ATPase activity was measured in a 96-well flat bottom plate (Thermo Fisher Scientific). 50 nM VCP was incubated in 100 μL ATPase buffer with 2% DMSO with 25 μM compound and various ATP concentrations. The absorbance at 360 ± 5 nm was measured for more than 15 minutes at 25°C. Phosphate release was quantified based on a phosphate standard curve performed on the same plate. Initial enzyme velocity was determined by fitting the linear portion of the data to a linear regression model.
(§5) Figure S8. VCP activators variable effect on ATPase activity of MSP associated mutations in recombinant VCP. ATPase activity of 50 nM recombinant VCP protein was measured using an MESG-PNP assay upon treatment with 25 μM compound versus 2% DMSO control at 1mM ATP for WT (also shown in Fig. 5c), A232E, R155H, and R159H (n=3 with 3 technical replicated per experiment; points are expressed as beta ± SE, linear effects model: *P<0.05,**P<0.01; ***P<0.001; ****P<0.0001).

A232E VCP = target: T4, A232E VCP (Mus musculus, UniProt Q01853, A232E); experiment: MESG-PNP ATPase assay, recombinant A232E VCP; assay type: biochemical; conditions: VCP Mutation A232E; replicate values
T4 construct: in the full-length recombinant VCP; His (N); made in house; host or cells: Escherichia coli BL21-CodonPlus (DE3)-RIL
T4 sequence (Q01853 whole entry A232E): as the sequence (Q01853 whole entry) above, with A232E counted along it
Experimental: as §4, §5

[3] = tested on: WT HeLa cells expressing GFP-TDP-4FL; experiment: Flow cytometry of GFP-TDP-4FL integrated fluorescence, WT HeLa; assay type: cell-based; conditions: for Integrated Fluorescence WT (Normalized to CHX): replicate values
Experimental: Drug treatments were performed on neurons 7 days after lentiviral transduction and 14 days after neuronal induction. HeLa cells were collected using trypsin and pelleted at 1000g for 3 minutes. Cell pellets were resuspended in colorless DMEM (Invitrogen) supplemented with 2% FBS and filtered through a BD tube with cell strainer (BD Biosciences) for flow cytometry analysis on LSR II (BD Biosciences). Data analysis was performed on FlowJo v10 software. Integrated fluorescence intensity was determined by multiplying percent positive GFP and GFP median fluorescence values.

R155H VCP = target: T5, R155H VCP (Mus musculus, UniProt Q01853, R155H); experiment: MESG-PNP ATPase assay, recombinant R155H VCP; assay type: biochemical; conditions: VCP Mutation R155H; replicate values
T5 construct: in the full-length recombinant VCP; His (N); made in house; host or cells: Escherichia coli BL21-CodonPlus (DE3)-RIL
T5 sequence (Q01853 whole entry R155H): as the sequence (Q01853 whole entry) above, with R155H counted along it
Experimental: as §4, §5

recombinant WT VCP [4] = target: T1, recombinant WT VCP; experiment: MESG-PNP (EnzCheck) phosphate release ATPase assay, WT VCP; assay type: biochemical; conditions: for ATPase activity v0/ET: 25 μM compound, replicate experiments
Experimental: as §4, §3

luciferase = experiment: Luciferase counter assay: Kinase-Glo with 62.5 μM ATP without recombinant VCP; assay type: biochemical; conditions: for measured ATP consumed (nmol) without VCP: replicate values
Experimental: as §2
(A-D) Measured ATP as determined by a Kinase-Glo assay of 62.5μM ATP in the presence of increasing concentrations of compound without recombinant VCP present. (for all panels: n=3 with 4 technical replicates per experiment, points are expressed as beta ± SE, linear mixed effects model, P>0.05 for each […]
as §1

SMILES: CC(C)C[C@H](NC(=O)CNC(=O)c1cc(Cl)ccc1Cl)B(O)O [ixazomib]
- TDP-4FL inclusion size and morphology upon proteasome inhibition [1]: generating larger TDP-4FL inclusions

SMILES: Clc1ccc2[nH]c3c(N4CCC5(CC4)OCCO5)ncnc3c2c1 [UP158]
- EC50 (recombinant WT VCP [2]; EC50 (μM) (95% CI), WT VCP without UN, 50 nM VCP, 62.5 μM ATP, 2% DMSO): 2.41 µM
- ATP consumed (recombinant WT VCP [2]; 0.78 μM compound): 1.347 nmol and 0.994 nmol and 1.148 nmol
- ATP consumed (recombinant WT VCP [2]; 1.56 μM compound): 1.354 nmol and 1.059 nmol and 1.210 nmol
- ATP consumed (recombinant WT VCP [2]; 3.13 μM compound): 1.498 nmol and 1.151 nmol and 1.481 nmol
- ATP consumed (recombinant WT VCP [2]; 6.25 μM compound): 1.483 nmol and 1.304 nmol and 1.494 nmol
- ATP consumed (recombinant WT VCP [2]; 12.5 μM compound): 1.656 nmol and 1.339 nmol and 1.428 nmol
- ATP consumed (recombinant WT VCP [2]; 25 μM compound): 1.637 nmol and 1.369 nmol and 1.624 nmol
- ATP consumed (recombinant WT VCP [2]; 50 μM compound): 1.715 nmol and 1.360 nmol and 1.703 nmol
- ATP consumed (recombinant WT VCP [2]; 100 μM compound): 1.794 nmol and 1.361 nmol and 1.605 nmol
- recombinant WT VCP ATPase activity (recombinant WT VCP [2]; in vitro validation of 106 screen hits): significantly increased
- increase of VCP activity (recombinant WT VCP [2]; maximum, WT VCP without UN): 50%
- change in EC50 with UN compared to without UN (WT VCP + Ufd1/Nploc4): significantly increased
- change in maximum percent activity with UN compared to without UN (WT VCP + Ufd1/Nploc4): stayed the same
- pEC50 (WT VCP + Ufd1/Nploc4; WT VCP + Ufd1/Nploc4, 1:1 molar ratio): 4.84
- ATP consumed (WT VCP + Ufd1/Nploc4; 1.56 μM compound): 1.283 nmol and 1.271 nmol and 1.261 nmol
- ATP consumed (WT VCP + Ufd1/Nploc4; 3.13 μM compound): 1.368 nmol and 1.194 nmol and 1.381 nmol
- ATP consumed (WT VCP + Ufd1/Nploc4; 6.25 μM compound): 1.593 nmol and 1.386 nmol and 1.366 nmol
- ATP consumed (WT VCP + Ufd1/Nploc4; 12.5 μM compound): 1.674 nmol and 1.527 nmol and 1.645 nmol
- ATP consumed (WT VCP + Ufd1/Nploc4; 25 μM compound): 1.721 nmol and 1.705 nmol and 1.784 nmol
- ATP consumed (WT VCP + Ufd1/Nploc4; 50 μM compound): 1.865 nmol and 1.744 nmol and 1.853 nmol
- ATP consumed (WT VCP + Ufd1/Nploc4; 100 μM compound): 1.867 nmol and 1.844 nmol and 1.895 nmol
- ATPase activity, nmol Pi / nmol VCP / s (R159H VCP): 1.332 nmol Pi / nmol VCP / s and 1.432 nmol Pi / nmol VCP / s and 1.240 nmol Pi / nmol VCP / s
- ATPase activity, nmol Pi / nmol VCP / s (A232E VCP): 1.493 nmol Pi / nmol VCP / s and 1.756 nmol Pi / nmol VCP / s and 2.037 nmol Pi / nmol VCP / s
- Integrated Fluorescence WT (Normalized to CHX) ([3]; 5μM compound with CHX): 0.937 and 0.971 and 1.133 and 0.982 and 1.082 and 0.863
- Integrated Fluorescence WT (Normalized to CHX) ([3]; 20μM compound with CHX): 1.023 and 1.038 and 1.143 and 1.051 and 0.869 and 0.804
- clearance of GFP-TDP-4FL aggregates (integrated fluorescence) ([3]; MG132, then CHX with 5 or 20 μM activator): did not have a significant effect
- ATPase activity, nmol Pi / nmol VCP / s (R155H VCP): 1.189 nmol Pi / nmol VCP / s and 1.361 nmol Pi / nmol VCP / s and 1.473 nmol Pi / nmol VCP / s
- kcat (nmol Pi / nmol VCP / s) (95% CI) (recombinant WT VCP [4]; 25 μM activator): 0.356 (0.320, 0.396) nmol Pi / nmol VCP / s
- increase in kcat (recombinant WT VCP [4]; 25 μM activator, versus DMSO): more than 50%
- ATPase activity v0/ET (recombinant WT VCP [4]; [ATP] 62.5 μM): 0.191 nmol Pi / nmol VCP / s and 0.186 nmol Pi / nmol VCP / s and 0.163 nmol Pi / nmol VCP / s
- ATPase activity v0/ET (recombinant WT VCP [4]; [ATP] 125 μM): 0.237 nmol Pi / nmol VCP / s and 0.241 nmol Pi / nmol VCP / s and 0.210 nmol Pi / nmol VCP / s
- ATPase activity v0/ET (recombinant WT VCP [4]; [ATP] 250 μM): 0.277 nmol Pi / nmol VCP / s and 0.260 nmol Pi / nmol VCP / s and 0.266 nmol Pi / nmol VCP / s
- ATPase activity v0/ET (recombinant WT VCP [4]; [ATP] 500 μM): 0.330 nmol Pi / nmol VCP / s and 0.296 nmol Pi / nmol VCP / s and 0.298 nmol Pi / nmol VCP / s
- ATPase activity v0/ET (recombinant WT VCP [4]; [ATP] 1000 μM): 0.372 nmol Pi / nmol VCP / s and 0.331 nmol Pi / nmol VCP / s and 0.333 nmol Pi / nmol VCP / s
- luciferase activity (measured ATP without VCP) (luciferase; 62.5 μM ATP, increasing concentrations of compound): did not inhibit luciferase activity
- measured ATP consumed (nmol) without VCP (luciferase; compound 6.25 μM): 3.401 nmol and 3.236 nmol and 3.539 nmol and 3.366 nmol and 3.357 nmol and 3.469 nmol and 3.543 nmol and 3.577 nmol and 3.421 nmol and 3.118 nmol and 3.388 nmol
- measured ATP consumed (nmol) without VCP (luciferase; compound 12.5 μM): 3.307 nmol and 3.430 nmol and 3.284 nmol and 3.618 nmol and 3.378 nmol and 3.515 nmol and 3.417 nmol and 3.480 nmol and 3.503 nmol and 3.589 nmol and 3.525 nmol and 3.323 nmol
- measured ATP consumed (nmol) without VCP (luciferase; compound 25 μM): 3.304 nmol and 3.386 nmol and 3.409 nmol and 3.378 nmol and 3.414 nmol and 3.361 nmol and 3.370 nmol and 3.512 nmol and 3.476 nmol and 3.518 nmol and 3.523 nmol and 3.257 nmol
- measured ATP consumed (nmol) without VCP (luciferase; compound 50 μM): 3.338 nmol and 3.481 nmol and 3.508 nmol and 3.447 nmol and 3.274 nmol and 3.450 nmol and 3.266 nmol and 3.477 nmol and 3.478 nmol and 3.313 nmol and 3.466 nmol and 3.330 nmol
- measured ATP consumed (nmol) without VCP (luciferase; compound 100 μM): 3.162 nmol and 3.374 nmol and 3.402 nmol and 3.401 nmol and 3.130 nmol and 3.262 nmol and 3.295 nmol and 3.438 nmol and 3.458 nmol and 3.582 nmol and 3.728 nmol and 3.332 nmol

SMILES: CC[C@H](C)[C@H](NC(=O)[C@H]([C@@H](C)CC)N(C)C(C)=O)C(=O)N[C@H](C(=O)N[C@@H](CC(C)C)C(=O)[C@@]1(C)CO1)[C@@H](C)O [epoxomicin]
- TDP-4FL inclusion size and morphology upon proteasome inhibition [1]: generating larger TDP-4FL inclusions

SMILES: Cc1cc2c(C(N)=O)cccc2n1-c1nc2c(c(NCc3ccccc3)n1)COCC2 [CB5083]
- TDP-4FL aggregate formation [1]: no effect on TDP-4FL aggregate formation
- TDP-4FL inclusion morphology after recovery [1]: residual irregularly shaped intranuclear TDP-4FL aggregates
